Read-outs that look alike come from different tables or passages of the source.
Tests used:
human SCN9A (Nav 1.7) = human SCN9A (Nav 1.7) (Homo sapiens, UniProt Q15858); experiment: Measurement of Na ion current (Nav 1.7) by automated patch clamp assay in cells stably-expressing human SCN9A; format: cell-based; conditions: read-out: Inhibitory rate (%) of Na ion current
Outline: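 Tetracycline-inducible cells stably expressing human SCN9A were recorded by automated patch clamp at room temperature. Inhibition rate derived from peak Na current evoked by depolarizing pulse, compared with and without test compound.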

[1] = test system: rats streptozotocin (STZ)-induced diabetic peripheral neuropathy model; experiment: Evaluation of analgesic effect (von Frey test) in streptozotocin-induced diabetic peripheral neuropathy model; format: in vivo, rat; conditions: male Wistar rats, 3 mg/kg of body weight, orally, one hour before measuring
Protocol: Test (2) Evaluation of Analgesic Effect in Streptozotocin-Induced Diabetic Peripheral Neuropathy Models
Using some typical compounds among the compounds of the present invention, the inhibitory effect for neuropathic pain was determined through the evaluation of analgesic effect in rats streptozotocin (STZ)-induced diabetic peripheral neuropathy model.
The disease animal model was prepared by means of a partially-modified method of Fox et al. (Pain 81, 307-316, 1999). STZ was intraperitoneally administered to 9-week old male Wistar rats in 45 mg/kg of body weight to prepare animal model suffering from diabetic peripheral neuropathy. The analgesic effect was evaluated by von Frey test. Specifically, mechanical sensitivity was measured by applying hairs (von Frey hair) to the plantar surface of the animal's hind paw, and then the reaction thresholds (50% paw withdrawal thresholds) for the mechanical stimulation was determined by using a formula based on Chaplan et al. (Journal of Neuroscience Methods 53, 55-63, 1994).
One and two days before evaluating the test compounds, the reaction thresholds were measured to obtain an average thereof, and the average value was used as a reference value obtained before the test compounds would be administered.
In order to reduce the variations of the averaged values among the test groups and the measured values in each group, the animals were divided into 4 to 5 groups.
In the evaluation test of the test compounds, the reaction thresholds were measured after administering each test compound. One hour before measuring the reaction thresholds, each test compound was administered in 3 mg/kg of body weight. The strength of analgesic effect of each test compound is expressed as the extension width (g) of reaction thresholds which is obtained by the calculation formula of (reaction threshold obtained after administering test compound)−(reaction threshold obtained before administering test compound).

[2] = compound concentration 10 μmol/L, holding potential inactivating 50% Nav 1.7 channel (around −60 mV)

Chain of human SCN9A (Nav 1.7) (Q15858 whole entry): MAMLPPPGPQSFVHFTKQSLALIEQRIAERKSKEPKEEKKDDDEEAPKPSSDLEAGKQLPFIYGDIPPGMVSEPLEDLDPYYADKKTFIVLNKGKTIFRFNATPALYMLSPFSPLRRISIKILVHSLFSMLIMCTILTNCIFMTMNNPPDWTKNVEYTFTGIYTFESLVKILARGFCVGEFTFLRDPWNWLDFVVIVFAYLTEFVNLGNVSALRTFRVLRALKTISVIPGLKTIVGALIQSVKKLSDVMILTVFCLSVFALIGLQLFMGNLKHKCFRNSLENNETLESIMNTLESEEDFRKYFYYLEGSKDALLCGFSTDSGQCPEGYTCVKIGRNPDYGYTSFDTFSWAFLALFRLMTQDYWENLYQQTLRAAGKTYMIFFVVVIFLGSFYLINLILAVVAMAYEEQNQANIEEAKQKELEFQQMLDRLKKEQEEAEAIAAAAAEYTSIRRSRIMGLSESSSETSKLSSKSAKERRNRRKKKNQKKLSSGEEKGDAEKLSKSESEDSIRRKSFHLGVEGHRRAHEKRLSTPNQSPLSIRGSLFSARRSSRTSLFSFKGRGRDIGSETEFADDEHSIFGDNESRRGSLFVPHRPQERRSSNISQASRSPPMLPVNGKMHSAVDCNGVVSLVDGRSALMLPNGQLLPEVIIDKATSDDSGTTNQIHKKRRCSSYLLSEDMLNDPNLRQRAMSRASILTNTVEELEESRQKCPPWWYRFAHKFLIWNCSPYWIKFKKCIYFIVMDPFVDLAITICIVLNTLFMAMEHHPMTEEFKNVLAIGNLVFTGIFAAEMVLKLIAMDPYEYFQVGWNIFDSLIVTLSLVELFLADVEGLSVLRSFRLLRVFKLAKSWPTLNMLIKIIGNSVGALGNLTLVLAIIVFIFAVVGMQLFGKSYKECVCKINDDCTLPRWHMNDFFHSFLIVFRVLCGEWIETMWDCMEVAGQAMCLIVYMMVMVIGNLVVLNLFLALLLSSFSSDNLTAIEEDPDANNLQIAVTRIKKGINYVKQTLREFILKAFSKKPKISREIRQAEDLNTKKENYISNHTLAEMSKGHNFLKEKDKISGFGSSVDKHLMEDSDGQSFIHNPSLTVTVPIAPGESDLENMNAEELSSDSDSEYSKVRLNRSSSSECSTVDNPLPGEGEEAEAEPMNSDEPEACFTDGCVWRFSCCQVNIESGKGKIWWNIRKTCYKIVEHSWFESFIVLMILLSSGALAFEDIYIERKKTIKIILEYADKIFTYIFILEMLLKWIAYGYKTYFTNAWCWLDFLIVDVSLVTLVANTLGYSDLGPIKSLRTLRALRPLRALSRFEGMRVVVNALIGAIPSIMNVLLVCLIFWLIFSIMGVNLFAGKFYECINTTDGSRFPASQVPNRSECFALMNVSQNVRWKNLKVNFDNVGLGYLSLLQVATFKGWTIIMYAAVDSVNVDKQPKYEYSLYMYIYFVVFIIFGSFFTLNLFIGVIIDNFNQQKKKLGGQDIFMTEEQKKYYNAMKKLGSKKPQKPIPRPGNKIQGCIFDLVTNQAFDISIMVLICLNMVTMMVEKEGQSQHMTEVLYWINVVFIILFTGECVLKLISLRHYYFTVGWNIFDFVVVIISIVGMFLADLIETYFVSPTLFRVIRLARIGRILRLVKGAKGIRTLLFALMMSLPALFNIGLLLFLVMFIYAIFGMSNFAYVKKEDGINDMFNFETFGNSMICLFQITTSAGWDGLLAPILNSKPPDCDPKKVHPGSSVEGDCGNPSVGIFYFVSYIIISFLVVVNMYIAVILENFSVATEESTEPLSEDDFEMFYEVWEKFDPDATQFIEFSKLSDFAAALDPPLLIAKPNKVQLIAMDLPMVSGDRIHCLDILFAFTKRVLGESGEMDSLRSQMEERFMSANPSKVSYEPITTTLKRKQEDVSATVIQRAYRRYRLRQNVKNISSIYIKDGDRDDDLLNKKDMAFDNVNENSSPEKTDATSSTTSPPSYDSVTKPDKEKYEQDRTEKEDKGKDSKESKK

For `CC(C)(O)CCn1cnc2ccc(Oc3ccc(Cl)cc3)cc21` [Example 101, 4-[6-(4-chlorophenoxy)-1H-benzimidazol-1-yl]-2-methylbutan-2-ol], the inhibition at 10 µM (human SCN9A (Nav 1.7); [2]) was 43% and the “extension width (g) of reaction thresholds (50% paw withdrawal threshold after minus before administering test compound)” value [1] was 1.4 g.

In the case of `CC(C)(O)Cn1cnc2ccc(-c3ccc(C(F)(F)F)cc3F)cc21` [Example 123, 1-{6-[2-fluoro-4-(trifluoromethyl)phenyl]-1H-benzimidazol-1-yl}-2-methylpropan-2-ol], the inhibition at 10 µM (human SCN9A (Nav 1.7); [2]) is reported as 64% and the “extension width (g) of reaction thresholds (50% paw withdrawal threshold after minus before administering test compound)” value [1] is reported as 1.3 g.

For `CC(C)(O)Cn1cnc2ccc(Oc3ccc(F)cc3)cc21` [Example 1, 1-[6-(4-fluorophenoxy)-1H-benzimidazol-1-yl]-2-methylpropan-2-ol], the inhibition at 10 µM (human SCN9A (Nav 1.7); [2]) was 83% and the “extension width (g) of reaction thresholds (50% paw withdrawal threshold after minus before administering test compound)” value [1] was 2.8 g.

`COc1cc(C(F)(F)F)ccc1-c1ccc2ncn(CC3(O)COC3)c2c1` [Example 148, 3-({6-[2-methoxy-4-(trifluoromethyl)phenyl]-1H-benzimidazol-1-yl}methyl)oxetan-3-ol] was tested, and the inhibition at 10 µM (human SCN9A (Nav 1.7); [2]) was 59% and the “extension width (g) of reaction thresholds (50% paw withdrawal threshold after minus before administering test compound)” value [1] was 3.7 g.

In the case of `CC(C)(O)CCn1cnc2ccc(Oc3ccc(C(F)(F)F)cn3)cc21` [Example 59, 2-methyl-4-(6-{[5-(trifluoromethyl)pyridin-2-yl]oxy}-1H-benzimidazol-1-yl)butan-2-ol], the inhibition at 10 µM (human SCN9A (Nav 1.7); [2]) is reported as 49% and the “extension width (g) of reaction thresholds (50% paw withdrawal threshold after minus before administering test compound)” value [1] is reported as 5.1 g.

For `CC(C)(O)Cn1cnc2cc(-c3ccc(C(F)(F)F)cc3F)ccc21` [Example 181, 1-{5-[2-fluoro-4-(trifluoromethyl)phenyl]-1H-benzimidazol-1-yl}-2-methylpropan-2-ol], the inhibition at 10 µM (human SCN9A (Nav 1.7); [2]) was 45% and the “extension width (g) of reaction thresholds (50% paw withdrawal threshold after minus before administering test compound)” value [1] was 2.5 g.

`O[C@H]1CC[C@@H](n2cnc3ccc(Oc4ccc(C(F)(F)F)cn4)cc32)CC1` [Example 118, cis-4-(6-{[5-(trifluoromethyl)pyridin-2-yl]oxy}-1H-benzimidazol-1-yl)cyclohexanol] was tested, and the inhibition at 10 µM (human SCN9A (Nav 1.7); [2]) was 33% and the “extension width (g) of reaction thresholds (50% paw withdrawal threshold after minus before administering test compound)” value [1] was 3.4 g.

With `CC(C)(O)Cn1cnc2ccc(Oc3ccc(Cl)cc3)cc21` [Example 20, 1-[6-(4-chlorophenoxy)-1H-benzimidazol-1-yl]-2-methylpropan-2-ol] the inhibition at 10 µM (human SCN9A (Nav 1.7)) was 91% and the “extension width (g) of reaction thresholds (50% paw withdrawal threshold after minus before administering test compound)” value [1] was 2.9 g.

With `C[C@H](n1cnc2ccc(Oc3ccc(C(F)(F)F)cn3)cc21)C(C)(C)O` [Example 229, (3S)-2-methyl-3-(6-{[5-(trifluoromethyl)pyridin-2-yl]oxy}-1H-benzimidazol-1-yl)butan-2-ol] the inhibition at 10 µM (human SCN9A (Nav 1.7); [2]) was 32% and the “extension width (g) of reaction thresholds (50% paw withdrawal threshold after minus before administering test compound)” value [1] was 3.9 g.

For `CC(C)(O)Cn1cnc2ccc(Oc3ccc(C(F)(F)F)cn3)cc21` [Example 28, 2-methyl-1-(6-{[5-(trifluoromethyl)pyridin-2-yl]oxy}-1H-benzimidazol-1-yl)propan-2-ol], the inhibition at 10 µM (human SCN9A (Nav 1.7); [2]) was 82% and the “extension width (g) of reaction thresholds (50% paw withdrawal threshold after minus before administering test compound)” value [1] was 6 g.

For `COc1cc(C(F)(F)F)ccc1-c1ccc2c(c1)ncn2CC1(O)COC1` [Example 205, 3-({5-[2-methoxy-4-(trifluoromethyl)phenyl]-1H-benzimidazol-1-yl}methyl)oxetan-3-ol], the inhibition at 10 µM (human SCN9A (Nav 1.7); [2]) was 46% and the “extension width (g) of reaction thresholds (50% paw withdrawal threshold after minus before administering test compound)” value [1] was 1.6 g.

In the case of `CC(C)(O)Cn1cnc2cc(-c3ccc(OC(F)(F)F)cc3)ccc21` [Example 179, 2-methyl-1-{5-[4-(trifluoromethoxy)phenyl]-1H-benzimidazol-1-yl}propan-2-ol], the inhibition at 10 µM (human SCN9A (Nav 1.7); [2]) is reported as 61% and the “extension width (g) of reaction thresholds (50% paw withdrawal threshold after minus before administering test compound)” value [1] is reported as 6.5 g.

`OC1(Cn2cnc3ccc(Oc4ccc(OC(F)(F)F)cc4)cc32)COC1` [Example 94, 3-({6-[4-(trifluoromethoxy)phenoxy]-1H-benzimidazol-1-yl}methyl)oxetan-3-ol] was tested, and the inhibition at 10 µM (human SCN9A (Nav 1.7); [2]) was 73% and the “extension width (g) of reaction thresholds (50% paw withdrawal threshold after minus before administering test compound)” value [1] was 4.9 g.

With `COc1cc(C(F)(F)F)ccc1-c1ccc2c(c1)ncn2CC(C)(C)O` [Example 176, 1-{5-[2-methoxy-4-(trifluoromethyl)phenyl]-1H-benzimidazol-1-yl}-2-methylpropan-2-ol] the inhibition at 10 µM (human SCN9A (Nav 1.7); [2]) was 73%.

With `FC(F)(F)c1ccc(-c2ccc3ncn(CC4CCCO4)c3c2)cc1` (centres unmarked) [Example 7, 1-(tetrahydrofuran-2-ylmethyl)-6-[4-(trifluoromethyl)phenyl]-1H-benzimidazole] the inhibition at 10 µM (human SCN9A (Nav 1.7); [2]) was 67%.

Work on `CC(C)(O)CCn1cnc2ccc(Oc3ccc(C(F)(F)F)nc3)cc21` [Example 103] yielded an inhibition at 10 µM (human SCN9A (Nav 1.7); [2]) of 10%.

`C[C@]1(O)C[C@@H](n2cnc3ccc(Oc4ccc(C(F)(F)F)cc4)cc32)C1` [Example 113] showed an inhibition at 10 µM (human SCN9A (Nav 1.7); [2]) of 68%.

Compound `CC(C)(O)Cn1cnc2cc(-c3ccccc3OC(F)(F)F)ccc21` [Example 197] has an inhibition at 10 µM (human SCN9A (Nav 1.7); [2]) of 33%.

In the case of `OC1(Cn2cnc3ccc(Oc4ccc(F)cc4Cl)cc32)COC1` [Example 110, 3-{[6-(2-chloro-4-fluorophenoxy)-1H-benzimidazol-1-yl]methyl}oxetan-3-ol], the inhibition at 10 µM (human SCN9A (Nav 1.7); [2]) is reported as 58%.

From patent US10407395B2, “Benzimidazole compound and medical use thereof” (Sumitomo Dainippon Pharma Co., Ltd., priority 2015, dated 2019)
